# Experimental data as given in patent US20210106550A1, “COMPOSITIONS FOR PREVENTING OR TREATING COGNITIVE IMPAIRMENT-RELATED DISEASE COMPRISING MUMEFURAL” (KOREA INSTITUTE OF ORIENTAL MEDICINE, priority 2018, published 2021).
# Columns and labels:
# microglia = assay: immunohistostaining of lba-1 (microglia) in hippocampus and white matter; format: in vivo, Wistar rats; conditions: compared with the negative control
# Procedure: (§1) Specifically, 12-week-old Wister rats (350 g to 380 g) were used for the experiments. After obtaining the experimental animals, appearance was visually inspected and then normal symptoms were observed during a 7-day acclimation period. Healthy animals were selected therefrom and assigned to groups by a random method according to body weight ranges, and then experiments were performed. During the acclimation and experiment, a constant breeding environment was maintained under the conditions of a temperature of 23±3° C., a relative humidity of 50±10%, a ventilation frequency of 12 times to 16 times per hour, a 12-hour light-dark cycle (light on at 7:00, light off at 19:00), and an intensity of illumination of 150 Lx to 300 Lx. Experiments were performed using sterilized instruments, and the rats were allowed free access to tap water and a solid feed (PMI nutrition, USA) for 24 hours. […]
# In order to investigate effects of mumefural on normalization of damaged hippocampus and corpus callosum of white matter in the dementia-mimic animal model, mumefural was administered in the same manner as in Example 1, and then microglia and astrocytes were detected in the hippocampus and white matter to identify gliosis. […]
# [1] = tested on: ChAT, VAChT, and AChE proteins; assay: western blot of ChAT, VAChT, and AChE proteins in hippocampus; format: in vivo; conditions: compared with the negative control; FIGS. 7A, 7B
# Procedure: (§2) Specifically, 12-week-old Wister rats (350 g to 380 g) were used for the experiments. After obtaining the experimental animals, appearance was visually inspected and then normal symptoms were observed during a 7-day acclimation period. Healthy animals were selected therefrom and assigned to groups by a random method according to body weight ranges, and then experiments were performed. During the acclimation and experiment, a constant breeding environment was maintained under the conditions of a temperature of 23±3° C., a relative humidity of 50±10%, a ventilation frequency of 12 times to 16 times per hour, a 12-hour light-dark cycle (light on at 7:00, light off at 19:00), and an intensity of illumination of 150 Lx to 300 Lx. Experiments were performed using sterilized instruments, and the rats were allowed free access to tap water and a solid feed (PMI nutrition, USA) for 24 hours.
# (§3) In order to construct a vascular dementia-mimic animal model, chronic cerebral hypoperfusion was induced by bilateral common carotid artery occlusion (2VO, hereinafter referred to as “brain damage (BCCA0)”) (Wakita et al., 1994). The rats were anesthetized with 4% isoflurane, and the anesthesia was maintained by 1.5% isoflurane during the operation. The central neck was incised to expose the bilateral common carotid artery carefully so as not to cause damage to the vagal nerve. Ligation was performed twice with No. 3 silk, thereby constructing an animal model in which dementia was induced by brain damage.
# (§4) After 21 days from the BCCA0 operation, the Wistar rats were orally administered with mumefural for 42 days. The rats were divided into 5 groups listed in Table 1 below, and controls were orally administered with saline. Different concentrations of mumefural were set in the oral administration as low concentration (20 mg/kg), medium concentration (40 mg/kg), and high concentration (80 mg/kg).
# phospho-CAMKII protein = assay: western blot of phospho-CAMKII in hippocampus; format: in vivo, Wistar rats; conditions: compared with the negative control; FIGS. 13A, 13B
# Procedure: Specifically, 12-week-old Wister rats (350 g to 380 g) were used for the experiments. After obtaining the experimental animals, appearance was visually inspected and then normal symptoms were observed during a 7-day acclimation period. Healthy animals were selected therefrom and assigned to groups by a random method according to body weight ranges, and then experiments were performed. […]
# In order to investigate effects of mumefural on normalization of damaged hippocampus in the dementia-mimic animal model, mumefural was administered in the same manner as in Example 1, and then expression levels of neurotransmitter secretion substances in the hippocampus were analyzed.
# Specifically, the hippocampus was excised from each of the dementia-mimic rats after administration of mumefural was completed, and proteins were extracted therefrom. Expression levels of phospho-Ca^2+/calmodulin-dependent protein kinase II (phospho-CAMKII) and Ca^2+/calmodulin-dependent protein kinase II (CAMKII) proteins were analyzed by western blotting. β-Actin was used as a loading control.
# AChE [2] = assay: enzyme-linked immunosorbent assay of AChE activity in hippocampus; format: in vivo; conditions: compared with the negative control; FIG. 8
# Procedure: as §2
# (§5) In order to construct a vascular dementia-mimic animal model, chronic cerebral hypoperfusion was induced by bilateral common carotid artery occlusion (2VO, hereinafter referred to as “brain damage (BCCA0)”) (Wakita et al., 1994). The rats were anesthetized with 4% isoflurane, and the anesthesia was maintained by 1.5% isoflurane during the operation. The central neck was incised to expose the bilateral common carotid artery carefully so as not to cause damage to the vagal nerve. […]
# [3] = tested on: P2X7R, TLR4, MyD88, NLRP3, caspase1, IL-1β, IL-18, phospho-STAT3, and NF-κB (p65, p50) proteins; assay: western blot of neurological inflammation proteins in hippocampus; format: in vivo, Wistar rats
# Procedure: as §2, §3, §4
# In order to investigate effects of mumefural on reduction of neurological inflammation in the dementia-mimic animal model, mumefural was administered in the same manner as in Example 1, and then expression levels of P2X purinoceptor 7 (P2X7R), toll-like receptor 4 (TLR4), myeloid differentiation primary response 88 (MyD88), nucleotide-binding oligomerization domain-like receptor protein 3 (NLRP3), caspase1, interleukin (IL)-1β, IL-18, phospho-signal transducer and activator of transcription 3 (phospho-STAT3), and NF-κB (p65, p50) proteins were measured in the hippocampus. Meanwhile, these proteins provoke inflammation of nerve cells, causing damage to the brain and resulting in diseases such as dementia.
# Specifically, the hippocampus was excised from each of the dementia-mimic rats after administration of mumefural was completed, and proteins were extracted therefrom. Expression levels of the proteins were analyzed by western blotting. β-Actin and LaminB1 were used as loading controls.
# MBP = assay: western blot of MBP in hippocampus; format: in vivo, Wistar rats; conditions: compared with the negative control, FIG. 10
# Procedure: as §2, §5
# AChE [4] = assay: enzyme-linked immunosorbent assay of AChE activity in basal forebrain; format: in vivo; conditions: compared with the negative control; FIG. 6
# Procedure: as §2, §5
# [5] = tested on: PSD-95 and synaptophysin-1 proteins; assay: western blot of synaptic markers in hippocampus; format: in vivo, Wistar rats; conditions: compared with the negative control; FIGS. 11A, 11B
# Procedure: as §1, with “Lx.” for “Lx. Experiments were performed using sterilized instruments, and the rats were allowed free access to tap water and a solid feed (PMI nutrition, USA) for 24 hours.”
# In order to investigate effects of mumefural on normalization of synaptic markers in the dementia-mimic animal model, mumefural was administered in the same manner as in Example 1, and then expression levels of PSD-95 and synaptophysin-1 proteins in the hippocampus were analyzed.
# Specifically, the hippocampus was excised from each of the dementia-mimic rats after administration of mumefural was completed, and the proteins were extracted therefrom. Expression levels of the PSD-95 and synaptophysin-1 proteins were analyzed by western blotting. β-Actin was used as a loading control.
# [6] = western blot, compared to the negative control, FIGS. 17A, 17B
structure (smiles),measurement,setting,value
O=Cc1ccc(COC(=O)CC(O)(CC(=O)O)C(=O)O)o1 (stereo not drawn) [mumefural],numbers of microglia (lba-1 positive cells) in the hippocampus,"microglia; FIGS. 15A, 15B",significantly decreased
same,numbers of microglia (lba-1 positive cells) in the white matter,"microglia; FIGS. 15C, 15D",significantly decreased
same,expression level of AChE protein in the hippocampus,[1],decreased
same,expression level of ChAT protein in the hippocampus,[1],increased
same,expression level of VAChT protein in the hippocampus,[1],increased
same,expression level of the phospho-CAMKII protein in hippocampus,phospho-CAMKII protein,significantly increased
same,activity of AChE in the hippocampus,AChE [2],decreased
same,"neurological inflammation protein expression, effect vs normal control","[3]; 20 mg/kg, 40 mg/kg, and 80 mg/kg oral",effects similar to or superior to those of the normal control
same,expression level of IL-1β protein in hippocampus,[3]; [6],decreased
same,expression level of IL-18 protein in hippocampus,[3]; [6],decreased
same,expression level of MyD88 protein in hippocampus,[3]; [6],decreased
same,expression level of NLRP3 protein in hippocampus,[3]; [6],decreased
same,expression level of P2X7R protein in hippocampus,[3]; [6],decreased
same,expression level of TLR4 protein in hippocampus,[3]; [6],decreased
same,expression level of caspase1 protein in hippocampus,[3]; [6],decreased
same,expression level of phospho-STAT3 protein in hippocampus,"[3]; western blot, compared to the negative control, FIGS. 18A, 18B",decreased
same,"expression level of NF-κB (p65, p50) proteins in hippocampus","[3]; western blot, compared to the negative control, FIGS. 19A, 19B",decreased
same,density of the MBP in the hippocampus,MBP,increased
same,activity of AChE in the basal forebrain,AChE [4],reduced
same,expression level of PSD-95 protein in hippocampus,[5],increased
same,expression level of synaptophysin-1 protein in hippocampus,[5],increased
